Test results reported in US10611795B2, “Methods for viral inactivation using eco-friendly detergents” (priority 2013, dated 2020).
Several values for one entry are separate records, joined by “and”; a condition that tells them apart may be missing. Identical values can stand only once. Like-named read-outs stand apart in the source and are kept apart here.

How the values were obtained:
[1] = Detergent mixing turbidity analysis (average absorbance 340-360 nm); format: physicochemical; conditions: MAb1 HCCF
[2] = Turbidity after detergent exposure; format: physicochemical; conditions: MAb3 HCCF and MAb3 MSS pool, three hours
[3] = tested on: Xenotropic Murine Leukemia Virus (XMuLV); format: cell-based; conditions: for xMuLV inactivation LRV, Time 2 / xMuLV inactivation LRV, Time 3 / xMuLV inactivation LRV, Time 0.5 / xMuLV inactivation LRV, Time 1 / xMuLV inactivation LRV, Time 6 / xMuLV inactivation, in words: 20° C.; for xMuLV inactivation LRV, Time 2: 2 h; for xMuLV inactivation LRV, Time 3: 3 h; for xMuLV inactivation LRV, Time 0.5: 0.5 h; for xMuLV inactivation LRV, Time 1: 1 h; for xMuLV inactivation LRV, Time 6: 6 h; for xMuLV inactivation, in words: detergent or solvent alone; for XMuLV LRV: rProtein1 CaptoAdhere Pool, Room Temperature
[4] = cited from earlier work; for acute EC50: 30 min Photobacterium phosphoreum (marine light-emitting bacteria); for Biodegradability classification in Closed Bottle and Modified OECD Screening Tests: both Closed Bottle and Modified OECD Screening Tests; for EC50: 3 weeks, Selenastrum capricornutum
[5] = EHS evaluation: basic physical and toxicological characteristics from manufacturer and government literature; conditions: not solid due to the algal and fish data
[6] = tested on: bovine viral diarrhea virus (BVDV); assay: BVDV inactivation, plaque assay with BT indicator cells (LRV); format: cell-based; conditions: rProtein 2 HCCF, 0.3% Detergent, 20° C., Run 1, Run 2
[7] = MAb1 HCCF, listed as 0.03M caprylate pH 4.5
[8] = MAb1 HCCF, listed as 0.03M caprylate pH 7.6
[9] = MAb1 HCCF, listed as 0.1M caprylate pH 5.0
[10] = MAb1 HCCF, listed as 0.1M caprylate pH 7.6
[11] = MAb1 HCCF, listed as 1% Polysorbate 20
[12] = MAb1 HCCF, listed as 2% Polysorbate 20
[13] = various (12 species) marine microalgae, 10-12 d
[14] = ~2 d, Sphaerechinus granularis, sea urchin embryo-larval test, marine
[15] = MAb1 Protein A pool, listed as 1% Polysorbate 80
[16] = MAb1 Protein A pool, listed as 2% Polysorbate 80

## CCCCCCCC(=O)O [caprylate, caprylic acid]
[1]
  turbidity during mixing, after filtration and overnight incubation (FIGS. 2, 3), in words: Turbidity increased with the addition and mixing
[2]
  turbidity, in words: Significant turbidity
[3]; [7]
  xMuLV inactivation LRV, Time 2: ≥5.0
  xMuLV inactivation LRV, Time 3: ≥5.0
[3]; [8]
  xMuLV inactivation LRV, Time 2: 0.21
  xMuLV inactivation LRV, Time 3: 0.30
[3]; [9]
  xMuLV inactivation LRV, Time 2: ≥5.1
  xMuLV inactivation LRV, Time 3: ≥5.1
[3]; [10]
  xMuLV inactivation LRV, Time 2: ≥6.0
  xMuLV inactivation LRV, Time 3: ≥6.0

## CCCCCCCCCCCC(=O)NCCC[N+](C)(C)CC(=O)[O-] [lauramidopropyl betaine]
[4]; as stated in the Biodegradability column, no single test named
  Biodegradability classification: readily biodegradable

## CCCCCCCCOC1OC(CO)C(O)C(O)C1O (stereo not drawn) [Alkylglucosides C8]
[4]
  acute EC50: 11.7 µg/mL
  Biodegradability classification in Closed Bottle and Modified OECD Screening Tests: C10 and C12) are readily

## Polysorbate 20
[3]; [11]
  xMuLV inactivation LRV, Time 0.5: 1.0
  xMuLV inactivation LRV, Time 1: 1.4
  xMuLV inactivation LRV, Time 3: 2.3
  xMuLV inactivation LRV, Time 6: 4.5
[3]; [12]
  xMuLV inactivation LRV, Time 0.5: 0.6
  xMuLV inactivation LRV, Time 1: 0.7
  xMuLV inactivation LRV, Time 3: 2.2
  xMuLV inactivation LRV, Time 6: 5.6
[3]; MAb1 HCCF
  xMuLV inactivation, in words: less effective
[4]; 1 d Artemia sp. (marine)
  acute LC50: acute LC50 1447 mg/l 1 d
[4]; 1 d Poecilia reticulata, freshwater
  LC50: LC50 350 mg/l 1 d Poecilia
[4]
  Biodegradability according to Roche's inherent biodegradability test (OECD 302): Poor biodegradability
[4]; freshwater
  EC50: EC50 ≤100 mg/l 3 weeks
[4]; highest tested concentration, limit test, 48 h Daphnia magna, OECD202
  acute NOEC: acute NOEC 10 mg/l
[4]; highest tested concentration, limit test, 21 d Daphnia magna, OECD repro
  chronic NOEC: chronic NOEC 10 mg/l
[4]; [13]
  chronic NOEC: chronic NOEC 10 mg/l
[4]; [14]
  chronic NOEC: chronic NOEC 20 mg/l ~2 d,
[5]
  preliminary acute-based freshwater PNEC: freshwater PNEC 0.1 mg/l,

## Polysorbate 80
[3]; MAb1 HCCF
  xMuLV inactivation LRV, Time 1: 3.3
  xMuLV inactivation LRV, Time 3: 5.7
  xMuLV inactivation, in words: less effective
[3]; [15]
  xMuLV inactivation LRV, Time 0.5: 0.4
  xMuLV inactivation LRV, Time 1: 0.9
  xMuLV inactivation LRV, Time 3: 1.1
[3]; [16]
  xMuLV inactivation LRV, Time 0.5: 0.7
  xMuLV inactivation LRV, Time 1: 0.7
  xMuLV inactivation LRV, Time 3: 1.0
[3]; MAb1 Protein A pool
  xMuLV inactivation LRV, Time 2: 1.2
[3]; 5 min, Run 1, Run 2
  XMuLV LRV: .45
[3]; 10 min, Run 1, Run 2
  XMuLV LRV: .57
[3]; 15 min
  XMuLV LRV: .82
[3]; 30 min
  XMuLV LRV: 2.1
[3]; rProtein1 CaptoAdhere pool, room temperature
  time to effective XMuLV inactivation: 1 h
[4]; 3 weeks Selenastrum capricornutum, printed with question marks
  ?NOEC: 100 mg/l? 3 weeks
[4]; 4 d Gloeocapsa (Cyanobacteria)
  chronic NOEC: chronic NOEC 100 mg/l 4 d
[4]; 96 h Tetrahymena pyriformis
  chronic NOEC: chronic NOEC 250 mg/l 96 h
[4]; Chlorella vulgaris 96 h, freshwater
  algal NOEC: algal NOEC 2 mg/l
[4]
  Biodegradability according to Roche's inherent biodegradability test (OECD 302): Poor biodegradability
[4]; Scenedesmus quadricauda 96 h, freshwater
  algal EC10 (~NOEC): algal EC10 (~NOEC) 6.99 mg/l
[4]; freshwater
  EC50: EC50 ≥100 mg/l, ?NOEC
[4]; [13]
  chronic NOEC: chronic NOEC 10 mg/l
[4]; [14]
  chronic NOEC: chronic NOEC 20 mg/l ~2 d,

## CCCCCCCCCCOC1OC(CO)C(O)C(O)C1O (stereo not drawn) [Alkylglucosides C10]
[4]
  acute EC50: 7.9 µg/mL
  Biodegradability classification in Closed Bottle and Modified OECD Screening Tests: C10 and C12) are readily

## CCCCCCCCCCCCOC1OC(CO)C(O)C(O)C1O (stereo not drawn) [Alkylglucosides C12]
[4]
  acute EC50: C12 = 8.8 mg/l), 30 min
  Biodegradability classification in Closed Bottle and Modified OECD Screening Tests: C10 and C12) are readily

## Triton X-100
[6]; 30 min
  BVDV log reduction value: 5.4 and 5.5
[6]; 60 min
  BVDV log reduction value: >5.4 and >5.5

## CCCCCCOC1OC(CO)C(O)C(O)C1O (stereo not drawn) [Alkylglucosides C6]
[4]
  acute EC50: EC50: C6 = 490 mg/l; C8 =
  Biodegradability classification in Closed Bottle and Modified OECD Screening Tests: C10 and C12) are readily
